# Assay results from patent US20190345138A1, “HETEROCYCLIC AMIDES AS KINASE INHIBITORS” (GlaxoSmithKline Intellectual Property Development Limited, priority 2016, published 2019).
# Values joined by “and” are separate entries in the source; they are usually repeats but may differ in a detail not shown here. Identical values can stand only once. Like-named read-outs stand apart in the source and are kept apart here.
# What was measured:
# [1] = test system: mouse L929 fibrosarcoma cells; experiment: necroptosis assay in L929 cells; format: cell-based; details: viability by cellular ATP (Cell Titer-Glo), read-out: pIC50, inhibited necrosis in L929 cells (converted)
# Procedure: The efficacy of RIP1 inhibitors can be tested […] in vitro using a human monocytic leukemia U937 or mouse L929 fibrosarcoma cells in a necroptosis assay. As determined using the method described in S. He et al., Cell, 137(6):1100-1111 (2009) and International Patent Appln. No. PCT/IB2014/059004, now, International Patent Appln. Pub.
# Viability was measured by quantitating cellular levels of ATP using the Cell Titer-Glo kit. All data are means±standard deviation of the mean.
# [2] = test system: human monocytic leukemia U937 cells; experiment: necroptosis assay in U937 cells; format: cell-based; details: viability by cellular ATP (Cell Titer-Glo); for IC50: Homo sapiens, U-937, U937 cells, read-out: pIC50, inhibited necrosis in U937 cells (converted)
# Procedure, shortened: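 Necroptosis was induced in human U937 or mouse L929 cells, and viability was quantified as cellular ATP with Cell Titer-Glo. Data are means±standard deviation.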
# [3] = biological target: T1, RIP1 kinase (Homo sapiens, UniProt Q13546); experiment: fluorescent polarization based binding assay; details: mean of a minimum of 2 experiments
# T1 sequence (Q13546 1-375 limits assumed): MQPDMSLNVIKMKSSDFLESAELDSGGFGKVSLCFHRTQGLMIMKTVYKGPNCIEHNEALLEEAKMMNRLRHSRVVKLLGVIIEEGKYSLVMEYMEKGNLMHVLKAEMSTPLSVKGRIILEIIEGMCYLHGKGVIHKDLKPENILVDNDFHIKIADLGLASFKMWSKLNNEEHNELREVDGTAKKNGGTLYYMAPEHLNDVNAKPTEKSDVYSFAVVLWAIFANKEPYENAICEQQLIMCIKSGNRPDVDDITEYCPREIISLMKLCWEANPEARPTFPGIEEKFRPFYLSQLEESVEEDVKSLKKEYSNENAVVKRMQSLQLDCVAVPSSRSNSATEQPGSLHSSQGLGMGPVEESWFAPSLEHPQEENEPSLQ
# Text: A fluorescent polarization based binding assay was used to assess the activity of the compounds of this invention, the details of which are disclosed in International Patent Appln. No. PCT/IB2014/059004, now, International Patent Appln. Pub.
IC50 [3],SMILES,IC50 ([1]; L929 cells) [nM],IC50 [2] [nM],"IC50 ([1]; L929, L929 cells) [nM]","pIC50, inhibited necrosis in U937 cells ([2]; U937 cells)"
–,"O=C(C1CCN(c2nccc(SCc3ccccc3)n2)CC1)N1N=CC[C@H]1c1ccccc1 [Example 1, (S)-(1-(4-(benzylthio)pyrimidin-2-yl)piperidin-4-yl)(5-phenyl-4,5-dihydro-1H-pyrazol-1-yl)methanone]",1 to 100,1 to 100,–,–
1 to 31.6 nM and 1 to 10 nM,"N#Cc1cc(N2CCC(C(=O)N3N=CC[C@H]3c3ccccc3)CC2)ncn1 [Example 14, (S)-6-(4-(5-phenyl-4,5-dihydro-1H-pyrazole-1-carbonyl)piperidin-1-yl)pyrimidine-4-carbonitrile]",1 to 100,1 to 100,–,–
1 to 31.6 nM and 1 to 10 nM,"Nc1nc(N2CCC(C(=O)N3N=CC[C@H]3c3ccccc3)CC2)ncc1F [Example 27, (S)-(1-(4-amino-5-fluoropyrimidin-2-yl)piperidin-4-yl)(5-phenyl-4,5-dihydro-1H-pyrazol-1-yl)methanone]",1 to 100,1 to 100,–,–
1 to 31.6 nM and 1 to 10 nM,"NC(=O)c1ccnc(N2CCC(C(=O)N3N=CC[C@H]3c3ccccc3)CC2)n1 [Example 28, (S)-2-(4-(5-phenyl-4,5-dihydro-1H-pyrazole-1-carbonyl)piperidin-1-yl)pyrimidine-4-carboxamide]",1 to 100,1 to 100,–,–
1 to 31.6 nM and 1 to 10 nM,"CC(=O)Nc1ccnc(N2CCC(C(=O)N3N=CC[C@H]3c3ccccc3)CC2)n1 [Example 36, (S)-N-(2-(4-(5-phenyl-4,5-dihydro-1H-pyrazole-1-carbonyl)piperidin-1-yl)pyrimidin-4-yl)acetamide]",1 to 100,1 to 100,–,–
1 to 31.6 nM and 1 to 10 nM,"O=C(C1CCN(c2ncc3cn[nH]c3n2)CC1)N1N=CC[C@H]1c1ccccc1 [Example 52, (S)-(1-(1H-pyrazolo[3,4-d]pyrimidin-6-yl)piperidin-4-yl)(5-phenyl-4,5-dihydro-1H-pyrazol-1-yl)methanone]",1 to 100,1 to 100,–,–
–,"Cc1nnc(N2CCC(C(=O)N3N=CC[C@H]3c3cc(F)cc(F)c3)CC2)o1 [Example 77, (S)-(5-(3,5-difluorophenyl)-4,5-dihydro-1H-pyrazol-1-yl)(1-(5-methyl-1,3,4-oxadiazol-2-yl)piperidin-4-yl)methanone]",–,–,~3160,~7.2
1 to 31.6 nM and 1 to 10 nM,"Nc1nc(N2CCC(C(=O)N3N=CC[C@H]3c3cc(F)cc(F)c3)CC2)ncc1F [Example 81, (S)-(1-(4-amino-5-fluoropyrimidin-2-yl)piperidin-4-yl)(5-(3,5-difluorophenyl)-4,5-dihydro-1H-pyrazol-1-yl)methanone]",1 to 100,1 to 100,–,–
1 to 31.6 nM and 1 to 10 nM,"NC(=O)c1ccnc(N2CCC(C(=O)N3N=CC[C@H]3c3cc(F)cc(F)c3)CC2)n1 [Example 83, (S)-2-(4-(5-(3,5-difluorophenyl)-4,5-dihydro-1H-pyrazole-1-carbonyl)piperidin-1-yl)pyrimidine-4-carboxamide]",1 to 100,1 to 100,–,–
–,"O=C(C1CCN(c2ncc3cn[nH]c3n2)CC1)N1N=CC[C@H]1c1cc(F)cc(F)c1 [Example 86, (S)-(1-(1H-pyrazolo[3,4-d]pyrimidin-6-yl)piperidin-4-yl)(5-(3,5-difluorophenyl)-4,5-dihydro-1H-pyrazol-1-yl)methanone]",1 to 100,1 to 100,–,–
–,"N#Cc1nccc(N2CCC(C(=O)N3N=CC[C@H]3c3cc(F)cc(F)c3)CC2)n1 [Example 89, (S)-4-(4-(5-(3,5-difluorophenyl)-4,5-dihydro-1H-pyrazole-1-carbonyl)piperidin-1-yl)pyrimidine-2-carbonitrile]",–,1 to 100,1 to 100,–
1 to 31.6 nM and 1 to 10 nM,"NC(=O)c1ccnc(N2CCC(C(=O)N3N=CC[C@H]3c3cc(F)ccc3F)CC2)n1 [Example 102, (S)-2-(4-(5-(2,5-difluorophenyl)-4,5-dihydro-1H-pyrazole-1-carbonyl)piperidin-1-yl)pyrimidine-4-carboxamide]",1 to 100,1 to 100,–,–
1 to 31.6 nM and 1 to 10 nM,"N#Cc1cc(N2CCC(C(=O)N3N=CC[C@H]3c3cc(F)ccc3F)CC2)ncn1 [Example 104, (S)-6-(4-(5-(2,5-difluorophenyl)-4,5-dihydro-1H-pyrazole-1-carbonyl)piperidin-1-yl)pyrimidine-4-carbonitrile]",1 to 100,1 to 100,–,–
1 to 31.6 nM,"CC(=O)Nc1ccnc(N2CCC(C(=O)N3N=CC[C@H]3c3cc(F)ccc3F)CC2)n1 [Example 118, (S)—N-(2-(4-(5-(2,5-difluorophenyl)-4,5-dihydro-1H-pyrazole-1-carbonyl)piperidin-1-yl)pyrimidin-4-yl)acetamide]",1 to 100,1 to 100,–,–
1 to 31.6 nM,"O=C(c1ccnc(N2CCC(C(=O)N3N=CC[C@H]3c3ccccc3)CC2)n1)N1CCNCC1 [Example 146, (S)-(5-phenyl-4,5-dihydro-1H-pyrazol-1-yl)(1-(4-(piperazine-1-carbonyl)pyrimidin-2-yl)piperidin-4-yl)methanone]",–,1 to 100,–,–
1 to 31.6 nM,"O=C(NC1CCNCC1)c1ccnc(N2CCC(C(=O)N3N=CC[C@H]3c3ccccc3)CC2)n1 [Example 147, (S)-2-(4-(5-phenyl-4,5-dihydro-1H-pyrazole-1-carbonyl)piperidin-1-yl)-N-(piperidin-4-yl)pyrimidine-4-carboxamide]",–,1 to 100,–,–
1 to 31.6 nM and 1 to 10 nM,"O=C1NCCC1c1nc(N2CCC(C(=O)N3N=CC[C@H]3c3ccccc3)CC2)ncc1F (stereo partly drawn) [Example 150, 3-(5-fluoro-2-(4-((S)-5-phenyl-4,5-dihydro-1H-pyrazole-1-carbonyl)piperidin-1-yl)pyrimidin-4-yl)pyrrolidin-2-one]",–,1 to 100,–,–
1 to 31.6 nM,"O=C(C1CCN(c2ncc(F)c(OCCO)n2)CC1)N1N=CC[C@H]1c1ccccc1 [Example 155, (S)-(1-(5-fluoro-4-(2-hydroxyethoxy)pyrimidin-2-yl)piperidin-4-yl)(5-phenyl-4,5-dihydro-1H-pyrazol-1-yl)methanone]",–,1 to 100,–,–
1 to 31.6 nM and 1 to 10 nM,"C#Cc1cc(N2CCC(C(=O)N3N=CC[C@H]3c3ccccc3)CC2)ncn1 [Example 156, (S)-(1-(6-ethynylpyrimidin-4-yl)piperidin-4-yl)(5-phenyl-4,5-dihydro-1H-pyrazol-1-yl)methanone]",1 to 100,1 to 100,–,–
1 to 31.6 nM and 1 to 10 nM,"C#Cc1cc(N2CCC(C(=O)N3N=CC[C@H]3c3cc(F)cc(F)c3)CC2)ncn1 [Example 157, (S)-(5-(3,5-difluorophenyl)-4,5-dihydro-1H-pyrazol-1-yl)(1-(6-ethynylpyrimidin-4-yl)piperidin-4-yl)methanone]",–,1 to 100,–,–
1 to 31.6 nM,"C#Cc1cc(N2CCC(C(=O)N3N=CC[C@H]3c3cccc(C#N)c3)CC2)ncn1 [Example 158, (S)-3-(1-(1-(6-ethynylpyrimidin-4-yl)piperidine-4-carbonyl)-4,5-dihydro-1H-pyrazol-5-yl)benzonitrile]",–,1 to 100,–,–
~50.1 nM,"O=C(O)c1ncnc(N2CCC(C(=O)N3N=CC[C@H]3c3ccccc3)CC2)c1F [Example 159, (S)-5-fluoro-6-(4-(5-phenyl-4,5-dihydro-1H-pyrazole-1-carbonyl)piperidin-1-yl)pyrimidine-4-carboxylic acid]",~251,–,–,–
1 to 31.6 nM,"NC(=O)c1nc(N2CCC(C(=O)N3N=CC[C@H]3c3cncc(F)c3)CC2)ncc1F [Example 161, (S)-5-fluoro-2-(4-(5-(5-fluoropyridin-3-yl)-4,5-dihydro-1H-pyrazole-1-carbonyl)piperidin-1-yl)pyrimidine-4-carboxamide]",–,1 to 100,–,–
1 to 31.6 nM,"O=C(O)c1ncnc(N2CCC(C(=O)N3N=CC[C@H]3c3cc(F)cc(F)c3)CC2)c1F [Example 164, (S)-6-(4-(5-(3,5-difluorophenyl)-4,5-dihydro-1H-pyrazole-1-carbonyl)piperidin-1-yl)-5-fluoropyrimidine-4-carboxylic acid]",–,1 to 100,–,–
1 to 31.6 nM and 1 to 10 nM,"NC(=O)c1ncnc(N2CCC(C(=O)N3N=CC[C@H]3c3cc(F)cc(F)c3)CC2)c1F [Example 165, (S)-6-(4-(5-(3,5-difluorophenyl)-4,5-dihydro-1H-pyrazole-1-carbonyl)piperidin-1-yl)-5-fluoropyrimidine-4-carboxamide]",–,1 to 100,–,–
1 to 31.6 nM and 1 to 10 nM,"NC(=O)Cc1nc(N2CCC(C(=O)N3N=CC[C@H]3c3ccccc3)CC2)ncc1F [Example 169, (S)-2-(5-fluoro-2-(4-(5-phenyl-4,5-dihydro-1H-pyrazole-1-carbonyl)piperidin-1-yl)pyrimidin-4-yl)acetamide]",–,1 to 100,–,–
